Laboratory results from ChEMBL document CHEMBL1201862, “PubChem BioAssay data set” (2004).
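Five compound concentrations were applied to cells in 96-well plates for 48 hours; endpoints were derived by simple linear interpolation of the resulting dose-response curve. GI50 is the concentration that inhibits growth by half.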 Active and inactive are the calls of the source. Cut-off read from the data, not from the text of the source: active = GI50 up to about 1.1 µM and inactive = higher.

How the values were obtained:
Assay in all cases: NCI-60 cell line screen, 48 h
SR = tested on: SR
ACHN = tested on: ACHN
SK-MEL-28 = tested on: SK-MEL-28
LOX IMVI = tested on: LOX IMVI
EKVX = tested on: EKVX
HOP-62 = tested on: HOP-62
SNB-19 = tested on: SNB-19
SF-268 = tested on: SF-268
SNB-75 = tested on: SNB-75
786-0 = tested on: 786-0
NCI-H522 = tested on: NCI-H522
RXF 393 = tested on: RXF 393
HCC 2998 = tested on: HCC 2998
NCI-H460 = tested on: NCI-H460
HL-60 = tested on: HL-60
CCRF-CEM = tested on: CCRF-CEM
A498 = tested on: A498

Measured: GI50

CC(=O)OC1(C(C)=O)CC2(c3ccccc3)OC1(c1ccccc1)c1ccccc12 (configuration not stated)
inactive: SR 6.56 µM | ACHN 16.6 µM | SK-MEL-28 31.6 µM | LOX IMVI 16.4 µM | EKVX 5.26 µM | HOP-62 11.6 µM | SNB-19 7.73 µM | SF-268 52.5 µM | SNB-75 59.6 µM | 786-0 31 µM | NCI-H522 4.26 µM | RXF 393 13 µM | HCC 2998 16.8 µM | NCI-H460 10.4 µM

Cc1ccc(S(=O)(=O)c2c(N)n(CCN(C)C)c3nc4ccccc4nc23)cc1
inactive: ACHN > 100 µM | SK-MEL-28 > 100 µM | HL-60 > 100 µM | CCRF-CEM 96.6 µM | EKVX > 100 µM | SNB-19 > 100 µM | SF-268 > 100 µM | SNB-75 > 100 µM | 786-0 > 100 µM | NCI-H522 3.13 µM | HCC 2998 > 100 µM | NCI-H460 > 100 µM

OCC(O)C(OC1OC(CO)C(O)C(O)C1O)c1nn(-c2ccccc2)c2nc3cc(Cl)ccc3nc12 (configuration not stated)
inactive: SR > 100 µM | ACHN > 100 µM | A498 > 100 µM | SK-MEL-28 > 100 µM | LOX IMVI > 100 µM | CCRF-CEM > 100 µM | EKVX > 100 µM | HOP-62 > 100 µM | SNB-19 > 100 µM | SF-268 > 100 µM | SNB-75 > 100 µM | 786-0 > 100 µM | NCI-H522 > 100 µM | RXF 393 > 100 µM | HCC 2998 > 100 µM | NCI-H460 > 100 µM

O=C(O)[C@@H](NS(=O)(=O)c1ccc2ccccc2c1)c1ccccc1
inactive: ACHN > 100 µM | A498 > 100 µM | SK-MEL-28 > 100 µM | LOX IMVI > 100 µM | HL-60 > 100 µM | CCRF-CEM > 100 µM | SNB-19 > 100 µM | SF-268 > 100 µM | SNB-75 > 100 µM | 786-0 > 100 µM | NCI-H522 > 100 µM | RXF 393 > 100 µM | HCC 2998 > 100 µM | NCI-H460 > 100 µM

COC(=O)C(CCC#N)(CCC#N)C(=O)OC
inactive: SR > 100 µM | ACHN > 100 µM | SK-MEL-28 > 100 µM | LOX IMVI > 100 µM | HL-60 > 100 µM | CCRF-CEM > 100 µM | EKVX > 100 µM | HOP-62 > 100 µM | SNB-19 > 100 µM | SF-268 > 100 µM | 786-0 > 100 µM | NCI-H522 > 100 µM | HCC 2998 > 100 µM | NCI-H460 > 100 µM

CC(=O)O[C@H]1C(N(C)C(=O)c2ccccc2)CC[C@]2(C)C3CC[C@@]4(C)C(CC(O)[C@@H]4C(C)N(C)C)[C@@H]3CCC12 (some centres not stated)
inactive: SR 76.9 µM | ACHN > 100 µM | A498 > 100 µM | SK-MEL-28 > 100 µM | LOX IMVI > 100 µM | HL-60 89.5 µM | CCRF-CEM > 100 µM | EKVX > 100 µM | HOP-62 > 100 µM | SNB-19 > 100 µM | SF-268 > 100 µM | SNB-75 > 100 µM | 786-0 > 100 µM | NCI-H522 > 100 µM | HCC 2998 > 100 µM | NCI-H460 > 100 µM

c1cnc2c(c1)-n1cccc1C1(CCCCC1)NN2
inactive: SR 40 µM | ACHN 88.3 µM | SK-MEL-28 > 100 µM | LOX IMVI 50 µM | HL-60 93.8 µM | CCRF-CEM 41.5 µM | EKVX 82.2 µM | HOP-62 > 100 µM | SNB-19 > 100 µM | SF-268 > 100 µM | SNB-75 > 100 µM | 786-0 > 100 µM | NCI-H522 63.1 µM | HCC 2998 > 100 µM | NCI-H460 61.5 µM

C=CCNC(=O)NCCCC(NC(C)=O)C(=O)NCc1ccccc1 (configuration not stated)
inactive: ACHN > 100 µM | A498 > 100 µM | SK-MEL-28 > 100 µM | LOX IMVI > 100 µM | HL-60 > 100 µM | CCRF-CEM > 100 µM | EKVX > 100 µM | HOP-62 > 100 µM | SNB-19 > 100 µM | SF-268 > 100 µM | SNB-75 > 100 µM | 786-0 > 100 µM | NCI-H522 > 100 µM | RXF 393 > 100 µM | NCI-H460 > 100 µM

Cc1ccc(-c2cc(-c3ccco3)c(C#N)c(O)n2)cc1
inactive: ACHN > 100 µM | A498 > 100 µM | SK-MEL-28 > 100 µM | LOX IMVI > 100 µM | HL-60 > 100 µM | CCRF-CEM > 100 µM | EKVX > 100 µM | HOP-62 50.2 µM | SNB-19 > 100 µM | SF-268 > 100 µM | SNB-75 18.7 µM | 786-0 > 100 µM | NCI-H522 > 100 µM | RXF 393 95.1 µM | HCC 2998 > 100 µM | NCI-H460 > 100 µM

COC(=O)C(=O)C(C(=O)C=C(C)C)C(=O)C(=O)Nc1nc2ccc([N+](=O)[O-])cc2s1 (configuration not stated)
inactive: ACHN 33.3 µM | A498 30.5 µM | SK-MEL-28 63.2 µM | LOX IMVI 56.4 µM | HL-60 35.4 µM | CCRF-CEM 38.7 µM | EKVX 33.9 µM | HOP-62 38.4 µM | SNB-19 > 100 µM | SF-268 39 µM | SNB-75 21.4 µM | 786-0 > 100 µM | NCI-H522 23.7 µM | RXF 393 12.9 µM | HCC 2998 46.6 µM | NCI-H460 72.8 µM

O=C1/C(=C(\Nc2ccccc2)c2ccccc2)C=NN1c1ccccc1
inactive: ACHN 61 µM | A498 > 100 µM | SK-MEL-28 > 100 µM | LOX IMVI > 100 µM | HL-60 17.7 µM | CCRF-CEM > 100 µM | EKVX > 100 µM | SNB-19 > 100 µM | SF-268 > 100 µM | SNB-75 > 100 µM | 786-0 > 100 µM | NCI-H522 > 100 µM | RXF 393 22.1 µM | HCC 2998 > 100 µM | NCI-H460 96.4 µM

Nc1c(-c2ccc(Cl)cc2Cl)[n+]([O-])c2ccccc2[n+]1[O-]
inactive: ACHN > 100 µM | A498 > 100 µM | SK-MEL-28 > 100 µM | LOX IMVI > 100 µM | HL-60 > 100 µM | CCRF-CEM > 100 µM | EKVX > 100 µM | HOP-62 > 100 µM | SNB-19 > 100 µM | SF-268 > 100 µM | SNB-75 48.2 µM | 786-0 > 100 µM | NCI-H522 37.4 µM | HCC 2998 > 100 µM | NCI-H460 > 100 µM

CC(=O)Nc1ccc(/C=C/C(=O)c2sc(C(N)=S)nc2C)cc1
inactive: A498 > 100 µM | SK-MEL-28 > 100 µM | LOX IMVI > 100 µM | HL-60 > 100 µM | CCRF-CEM 81.1 µM | EKVX > 100 µM | HOP-62 > 100 µM | SF-268 > 100 µM | SNB-75 > 100 µM | 786-0 > 100 µM | NCI-H522 > 100 µM | RXF 393 > 100 µM | HCC 2998 > 100 µM | NCI-H460 > 100 µM
